The experiment deals with HCT116. Put plainly: In Vitro cytotoxicity measured by the cell colony formation assay. The experiment is classed as cell-based, human. The following applies: Homo sapiens, HCT-116; read-out: IN VITRO ID 50 HCT116. The method, then: Four hundred cells (HCT116) were plated in 60 mm Petri dishes containing 2.7 mL of medium (modified McCoy's 5a medium containing 10% fetal bovine serum and 100 units/mL penicillin and […] streptomycin). The cells were incubated in a CO2 incubator at 37 °C for 5 h for attachment to the bottom of Petri dishes. The compounds identified in Example 2 were made up fresh in medium at ten times the final concentration, and then 0.3 mL of this stock solution was added to the 2.7 mL of medium in the dish. The cells were then incubated with drugs for 72 h at 37 °C. At the end of incubation the drug-containing media were decanted, the dishes were rinsed with 4 mL of Hank's Balance Salt Solution (HBSS), 5 mL of fresh medium was added, and the dishes were returned to the incubator for colony formation. The cell colonies were counted using a colony counter after incubation for 7 days.
Consider `CC(=O)O[C@@]12CO[C@@H]1C[C@H](O)[C@@]1(C)C(=O)[C@H](OC(=O)c3cccs3)C3=C(C)[C@@H](OC(=O)[C@H](O)[C@@H](NC(=O)OC(C)(C)C)c4ccccn4)C[C@@](O)([C@@H](OC(=O)c4ccccc4)[C@H]21)C3(C)C` [Compound 1883], for which the IC50 is less than 10 nM.
In the case of `CC(=O)O[C@@]12CO[C@@H]1C[C@H](O)[C@@]1(C)C(=O)[C@H](OC(=O)c3cccs3)C3=C(C)[C@@H](OC(=O)[C@H](O)[C@@H](NC(=O)OC(C)(C)C)c4ccco4)C[C@@](O)([C@@H](OC(=O)c4ccccc4)[C@H]21)C3(C)C` [Compound 1892] it was less than 1 nM.
In the case of `CC(=O)O[C@@]12CO[C@@H]1C[C@H](O)[C@@]1(C)C(=O)[C@H](OC(=O)c3cccs3)C3=C(C)[C@@H](OC(=O)[C@H](O)[C@@H](NC(=O)OC(C)(C)C)c4cccs4)C[C@@](O)([C@@H](OC(=O)c4ccccc4)[C@H]21)C3(C)C` [Compound 1900], the IC50 is less than 1 nM.
On to `CC(=O)O[C@@]12CO[C@@H]1C[C@H](O)[C@@]1(C)C(=O)[C@H](OC(=O)c3cccs3)C3=C(C)[C@@H](OC(=O)[C@H](O)[C@@H](NC(=O)OC(C)(C)C)c4ccc([N+](=O)[O-])cc4)C[C@@](O)([C@@H](OC(=O)c4ccccc4)[C@H]21)C3(C)C` [Compound 1911], for which the IC50 is less than 10 nM.
With `CC(=O)O[C@@]12CO[C@@H]1C[C@H](O)[C@@]1(C)C(=O)[C@H](OC(=O)c3cccs3)C3=C(C)[C@@H](OC(=O)[C@H](O)[C@@H](NC(=O)OC(C)(C)C)c4ccoc4)C[C@@](O)([C@@H](OC(=O)c4ccccc4)[C@H]21)C3(C)C` [Compound 1923], the IC50 was less than 1 nM.
For the molecule `CC(=O)O[C@@]12CO[C@@H]1C[C@H](O)[C@@]1(C)C(=O)[C@H](OC(=O)c3cccs3)C3=C(C)[C@@H](OC(=O)[C@H](O)[C@@H](NC(=O)OC(C)(C)C)c4ccsc4)C[C@@](O)([C@@H](OC(=O)c4ccccc4)[C@H]21)C3(C)C` [Compound 1939], the IC50 is less than 1 nM.
As to `CC(=O)O[C@@]12CO[C@@H]1C[C@H](O)[C@@]1(C)C(=O)[C@H](OC(=O)c3cccs3)C3=C(C)[C@@H](OC(=O)[C@H](O)[C@@H](NC(=O)OC(C)(C)C)c4cccnc4)C[C@@](O)([C@@H](OC(=O)c4ccccc4)[C@H]21)C3(C)C` [Compound 1948], the IC50 is less than 10 nM.
In the case of `CC(=O)O[C@@]12CO[C@@H]1C[C@H](O)[C@@]1(C)C(=O)[C@H](OC(=O)c3cccs3)C3=C(C)[C@@H](OC(=O)[C@H](O)[C@@H](NC(=O)OC(C)(C)C)c4ccncc4)C[C@@](O)([C@@H](OC(=O)c4ccccc4)[C@H]21)C3(C)C` [Compound 1954] it was less than 1 nM; in that of `CC(=O)O[C@@]12CO[C@@H]1C[C@H](O)[C@@]1(C)C(=O)[C@H](OC(=O)c3cccs3)C3=C(C)[C@@H](OC(=O)[C@H](O)[C@@H](NC(=O)OC(C)(C)C)C(C)C)C[C@@](O)([C@@H](OC(=O)c4ccccc4)[C@H]21)C3(C)C` [Compound 1964], less than 10 nM.
As to `CC(=O)O[C@@]12CO[C@@H]1C[C@H](O)[C@@]1(C)C(=O)[C@H](OC(=O)c3cccs3)C3=C(C)[C@@H](OC(=O)[C@H](O)[C@@H](NC(=O)OC(C)(C)C)C4CCC4)C[C@@](O)([C@@H](OC(=O)c4ccccc4)[C@H]21)C3(C)C` [Compound 1970], the IC50 is less than 10 nM.
In the case of `CC(=O)O[C@@]12CO[C@@H]1C[C@H](O)[C@@]1(C)C(=O)[C@H](OC(=O)c3cccs3)C3=C(C)[C@@H](OC(=O)[C@H](O)[C@@H](NC(=O)OC(C)(C)C)c4ccccc4)C[C@@](O)([C@@H](OC(=O)c4ccccc4)[C@H]21)C3(C)C` [Compound 1988] it was less than 10 nM; in that of `CC(=O)O[C@@]12CO[C@@H]1C[C@H](O)[C@@]1(C)C(=O)[C@H](OC(=O)c3ccco3)C3=C(C)[C@@H](OC(=O)[C@H](O)[C@H](C=C(C)C)NC(=O)OC(C)(C)C)C[C@@](O)([C@@H](OC(=O)c4ccccc4)[C@H]21)C3(C)C` [Compound 2101], less than 1 nM; in that of `CC(=O)O[C@@]12CO[C@@H]1C[C@H](O)[C@@]1(C)C(=O)[C@H](OC(=O)c3ccco3)C3=C(C)[C@@H](OC(=O)[C@H](O)[C@@H](NC(=O)OC(C)(C)C)c4ccccn4)C[C@@](O)([C@@H](OC(=O)c4ccccc4)[C@H]21)C3(C)C` [Compound 2111], less than 1 nM.
As to `CC(=O)O[C@@]12CO[C@@H]1C[C@H](O)[C@@]1(C)C(=O)[C@H](OC(=O)c3ccco3)C3=C(C)[C@@H](OC(=O)[C@H](O)[C@@H](NC(=O)OC(C)(C)C)c4cccnc4)C[C@@](O)([C@@H](OC(=O)c4ccccc4)[C@H]21)C3(C)C` [Compound 2124], the IC50 was less than 10 nM.
On to `CC(=O)O[C@@]12CO[C@@H]1C[C@H](O)[C@@]1(C)C(=O)[C@H](OC(=O)c3ccco3)C3=C(C)[C@@H](OC(=O)[C@H](O)[C@@H](NC(=O)OC(C)(C)C)c4ccncc4)C[C@@](O)([C@@H](OC(=O)c4ccccc4)[C@H]21)C3(C)C` [Compound 2132], for which the IC50 is less than 1 nM.
In the case of `CC(=O)O[C@@]12CO[C@@H]1C[C@H](O)[C@@]1(C)C(=O)[C@H](OC(=O)c3ccco3)C3=C(C)[C@@H](OC(=O)[C@H](O)[C@@H](NC(=O)OC(C)(C)C)c4ccco4)C[C@@](O)([C@@H](OC(=O)c4ccccc4)[C@H]21)C3(C)C` [Compound 2142] it was less than 1 nM.
In the case of `CC(=O)O[C@@]12CO[C@@H]1C[C@H](O)[C@@]1(C)C(=O)[C@H](OC(=O)c3ccco3)C3=C(C)[C@@H](OC(=O)[C@H](O)[C@@H](NC(=O)OC(C)(C)C)c4ccoc4)C[C@@](O)([C@@H](OC(=O)c4ccccc4)[C@H]21)C3(C)C` [Compound 2159] it was less than 1 nM; in that of `CC(=O)O[C@@]12CO[C@@H]1C[C@H](O)[C@@]1(C)C(=O)[C@H](OC(=O)c3ccco3)C3=C(C)[C@@H](OC(=O)[C@H](O)[C@@H](NC(=O)OC(C)(C)C)c4cccs4)C[C@@](O)([C@@H](OC(=O)c4ccccc4)[C@H]21)C3(C)C` [Compound 2164], less than 1 nM; in that of `CC(=O)O[C@@]12CO[C@@H]1C[C@H](O)[C@@]1(C)C(=O)[C@H](OC(=O)c3ccco3)C3=C(C)[C@@H](OC(=O)[C@H](O)[C@@H](NC(=O)OC(C)(C)C)c4ccsc4)C[C@@](O)([C@@H](OC(=O)c4ccccc4)[C@H]21)C3(C)C` [Compound 2173], less than 1 nM.
`CC(=O)O[C@@]12CO[C@@H]1C[C@H](O)[C@@]1(C)C(=O)[C@H](OC(=O)c3ccco3)C3=C(C)[C@@H](OC(=O)[C@H](O)[C@@H](NC(=O)OC(C)(C)C)C(C)C)C[C@@](O)([C@@H](OC(=O)c4ccccc4)[C@H]21)C3(C)C` [Compound 2181]: the IC50 is less than 10 nM.
Take `CC(=O)O[C@@]12CO[C@@H]1C[C@H](O)[C@@]1(C)C(=O)[C@H](OC(=O)c3ccco3)C3=C(C)[C@@H](OC(=O)[C@H](O)[C@@H](NC(=O)OC(C)(C)C)C4CCC4)C[C@@](O)([C@@H](OC(=O)c4ccccc4)[C@H]21)C3(C)C` [Compound 2199]: the IC50 is less than 10 nM.
In the case of `CC(=O)O[C@@]12CO[C@@H]1C[C@H](O)[C@@]1(C)C(=O)[C@H](OC(=O)c3ccco3)C3=C(C)[C@@H](OC(=O)[C@H](O)[C@@H](NC(=O)OC(C)(C)C)c4ccc([N+](=O)[O-])cc4)C[C@@](O)([C@@H](OC(=O)c4ccccc4)[C@H]21)C3(C)C` [Compound 2202] it was less than 1 nM.
`CC(=O)OC12COC1CC(O)C1(C)C(=O)C(OC(=O)c3ccco3)C3=C(C)C(OC(=O)C(O)C(NC(=O)OC(C)(C)C)c4ccccc4)CC(O)(C(OC(=O)c4ccccc4)C21)C3(C)C` (centres unmarked) [Compound 2212]: the IC50 is less than 10 nM.
The value for `CC(=O)OC12COC1CC(O)C1(C)C(=O)C(OC(=O)C(C)C)C3=C(C)C(OC(=O)C(O)C(C=C(C)C)NC(=O)OC(C)(C)C)CC(O)(C(OC(=O)c4ccccc4)C21)C3(C)C` (centres unmarked) [Compound 2226] was less than 1 nM; that for `CC(=O)OC12COC1CC(O)C1(C)C(=O)C(OC(=O)C(C)C)C3=C(C)C(OC(=O)C(O)C(NC(=O)OC(C)(C)C)c4ccccn4)CC(O)(C(OC(=O)c4ccccc4)C21)C3(C)C` (centres unmarked) [Compound 2238] was less than 1 nM; that for `CC(=O)OC12COC1CC(O)C1(C)C(=O)C(OC(=O)C(C)C)C3=C(C)C(OC(=O)C(O)C(NC(=O)OC(C)(C)C)c4cccnc4)CC(O)(C(OC(=O)c4ccccc4)C21)C3(C)C` (centres unmarked) [Compound 2242] was less than 10 nM.
The value for `CC(=O)OC12COC1CC(O)C1(C)C(=O)C(OC(=O)C(C)C)C3=C(C)C(OC(=O)C(O)C(NC(=O)OC(C)(C)C)c4ccncc4)CC(O)(C(OC(=O)c4ccccc4)C21)C3(C)C` (centres unmarked) [Compound 2255] was less than 1 nM; that for `CC(=O)OC12COC1CC(O)C1(C)C(=O)C(OC(=O)C(C)C)C3=C(C)C(OC(=O)C(O)C(NC(=O)OC(C)(C)C)c4ccco4)CC(O)(C(OC(=O)c4ccccc4)C21)C3(C)C` (centres unmarked) [Compound 2269] was less than 1 nM.
As to `CC(=O)OC12COC1CC(O)C1(C)C(=O)C(OC(=O)C(C)C)C3=C(C)C(OC(=O)C(O)C(NC(=O)OC(C)(C)C)c4ccoc4)CC(O)(C(OC(=O)c4ccccc4)C21)C3(C)C` (centres unmarked) [Compound 2273], the IC50 was less than 1 nM.
The value for `CC(=O)OC12COC1CC(O)C1(C)C(=O)C(OC(=O)C(C)C)C3=C(C)C(OC(=O)C(O)C(NC(=O)OC(C)(C)C)c4cccs4)CC(O)(C(OC(=O)c4ccccc4)C21)C3(C)C` (centres unmarked) [Compound 2287] was less than 1 nM.
In the case of `CC(=O)OC12COC1CC(O)C1(C)C(=O)C(OC(=O)C(C)C)C3=C(C)C(OC(=O)C(O)C(NC(=O)OC(C)(C)C)c4ccsc4)CC(O)(C(OC(=O)c4ccccc4)C21)C3(C)C` (centres unmarked) [Compound 2291] it was less than 1 nM; in that of `CC(=O)OC12COC1CC(O)C1(C)C(=O)C(OC(=O)C(C)C)C3=C(C)C(OC(=O)C(O)C(NC(=O)OC(C)(C)C)C(C)C)CC(O)(C(OC(=O)c4ccccc4)C21)C3(C)C` (centres unmarked) [Compound 2306], less than 10 nM.

(Values after patent EP1285920A1, “C10 Ester sustituted taxanes as antitumor agents” (Florida State University Research Foundation, Inc., priority 2001, dated 2003).)
